Measured values reported in publication PMC7616174, “Development of Novel 4-Arylpyridin-2-one and 6-Arylpyrimidin-4-one Positive Allosteric Modulators of the M1 Muscarinic Acetylcholine Receptor” (ChemMedChem, 2020).
Where two headings read alike, the source gives them in different places.

How the values were obtained:
hM1 mAChR [1] = molecular target: T1, hM1 mAChR (Homo sapiens, UniProt P11229); test: IP1 accumulation assay (ACh concentration-response curves in absence or presence of modulator); format: cell-based; settings: for activation at 1 µM: read-out: Δbaseline [1 μM]: change in basal response in presence of M1 PAM compared to control curve; for activation at 10 µM: read-out: Δbaseline [10 μM]: change in basal response in presence of M1 PAM compared to control curve; for log τB (logarithm of intrinsic efficacy of the modulator) / log αβ (logarithm of functional cooperativity between ACh and modulator): operational model; for log αβ (logarithm of functional cooperativity between ACh and modulator): pKB constrained to binding value
T1 construct: expressed in transfected cells
T1 sequence (P11229 1-460): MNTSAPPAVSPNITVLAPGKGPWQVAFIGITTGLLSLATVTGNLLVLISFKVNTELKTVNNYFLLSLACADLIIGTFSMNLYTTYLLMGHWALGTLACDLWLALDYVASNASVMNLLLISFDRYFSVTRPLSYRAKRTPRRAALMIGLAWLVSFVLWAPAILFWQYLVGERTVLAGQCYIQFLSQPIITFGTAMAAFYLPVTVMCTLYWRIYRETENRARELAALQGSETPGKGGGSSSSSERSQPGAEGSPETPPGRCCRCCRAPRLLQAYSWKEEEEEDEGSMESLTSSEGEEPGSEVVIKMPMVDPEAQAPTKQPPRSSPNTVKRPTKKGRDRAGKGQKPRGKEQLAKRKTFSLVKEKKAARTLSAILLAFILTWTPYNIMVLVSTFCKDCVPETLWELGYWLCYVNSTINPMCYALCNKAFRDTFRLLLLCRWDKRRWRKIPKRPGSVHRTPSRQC
Protocol: Functional activity of the synthesized analogues as racemic mixtures was investigated in IP1 accumulation assays at the M1 mAChR, as described previously.[13–14] ACh concentration-response curves were generated in the absence or presence of a 1 and 10 μM concentration of each modulator. The change in baseline activity (Δbaseline) is an approximate measure of direct allosteric agonism (τB), whereas the pEC50 shift (ΔpEC50) is an approximate measure of functional cooperativity (αβ) of each modulator with ACh in the investigated signalling pathway. We aimed to identify modulators with various degrees of allosteric agonism and modulatory effects on ACh response, as these could generate distinct in vivo outcomes for applications in different conditions in the CNS or gastrointestinal (GI) tract.[[10g,h,j]]
(§1) The compounds were then fully characterised in two functional assays (Figure 2C and D); the Gq-coupled IP1 accumulation assay (Figure S2), which was used for the initial screening of the compounds, and a β-arrestin 2 recruitment assay (Figure S3). The operational efficacy (τB) values for the modulators and their functional cooperativity estimates with ACh (logαβACh) at both signalling pathways were estimated by applying an operational model of allosterism and agonism to the data [Eq. (3)],[16] and are listed in Table 5.
FlpIn CHO cells stably expressing the hM1 mAChR were seeded at 25000 per well of 96-well transparent cell culture plates and grown overnight. […] Cells were then stimulated with increasing concentration of ACh in the absence or presence of increasing concentrations of each modulator for 1 h at 37°C. […] Seven μL of cell lysates were transferred into wells of 384-well Proxiplates (Perki-nElmer Life Sciences), and IP1 levels were measured using the IP-One assay kit (Cisbio, Codolet, France). […] The signal was expressed as the HTRF ratio, interpolated from the standard curve, and normalized to the maximum response to ACh.
Changes in both baseline and pEC50 were quantified by subtracting the estimates at each M1 PAM concentrations with the control values. Propagation of the error on baseline and potency values were determined as follows [Eq. (1)]: σΔ=σPAM2+σcont.2 where σΔ is the standard error of the mean (SEM) for the change in value, and σPAM and σcont. are the SEM from the three-parameter logistic equation analysis in presence or absence of M1 PAM, respectively.
(§2) Functional interaction studies between ACh and allosteric modulators in IP1 and β-arrestin 2 recruitment assays were analysed according to a three-parameter logistic equation or the following operational model of allosterism and agonism [Eq. (3)].[16] E=Basal+(Em−Basal)([A](KB+αβ[B])+τB[B]EC50)^n/EC50n(KB+[B])^n+([A](KB+αβ[B])+τB[B]EC50)^n where Em is the maximal possible system response, and Basal is the response in the absence of agonist. [A] and [B] are concentrations of orthosteric and allosteric ligands, respectively. KB is the equilibrium dissociation constant of allosteric ligand, and EC50 is the concentration of orthosteric agonist required to achieve half maximal response. α and β represent the magnitude of the allosteric effects on orthosteric ligand affinity and efficacy, respectively; τB is the efficacy of allosteric ligand, and n is the slope factor of the transducer function that links occupancy to response.

hM1 mAChR [2] = molecular target: T1, hM1 mAChR; test: Whole-cell [3H]NMS equilibrium competition radioligand binding; settings: [3H]NMS binding; for α (binding cooperativity with ACh): antilog
Protocol: To determine the affinity (pKB) of the allosteric modulators for the allosteric site, and their binding cooperativity with ACh (log αACh) at the M1 mAChR, whole cell equilibrium competition binding studies were performed, using [^3H]NMS to label the orthosteric site.
FlpIn Chinese hamster ovary (CHO) cells stably expressing the hM1 mAChR were grown in Dulbecco’s modified Eagle’s medium (DMEM) (Invitrogen, Carlsbad, CA) supplemented with 5% foetal bovine serum (FBS) (Thermo-Trace, Melbourne, Australia) and 300 μg/mL G418 (Invitrogen, Carlsbad, CA). The cells were plated at 50,000 cells per well of 96-well white clear bottom plates (Greiner Bio-one, Kremsmünster, Austria), and were grown overnight. The following day, cells were washed twice with Phosphate Buffered Saline (PBS), and incubated with increasing concentrations of ACh (Sigma) in the absence or presence of increasing concentrations of each modulator and 0.2 nM [^3H]NMS (PerkinElmer Life Sciences) in binding buffer (20 mM HEPES, 100 mM NaCl, 10 mM MgCl2, pH 7.4) for 5 h at room temperature. Nonspecific binding was determined using atropine at the final concentration of 10 μM. The assays were terminated by rapid removal of the unbound radioligand followed by two washes with 100 μL/well ice-cold 0.9% NaCl buffer. Radioactivity was determined by addition of 100 μL/well Ultima gold (PerkinElmer Life Sciences) and counting in a MicroBeta plate reader (PerkinElmer Life Sciences).
Binding interaction studies with allosteric ligands were fitted to the following allosteric ternary complex model [Eq. (2)][15] Y=Bmax|A|/[Λ]+[KAKB/α^′[B]+KB][1+[I]/K1+[B]/KB+α[I][B]/KIKB] where Bmax is the total number of receptors, [A], [B] and [I] denote the concentrations of radioligand, allosteric modulator, and orthosteric ligand, respectively; KA, KB and KI are their respective equilibrium dissociation constants. α’ and α are the affinity cooperativity factors between the allosteric ligand and radioligand or the allosteric modulator and ACh, respectively. Values of α or α’ > 1 denote positive cooperativity, values < 1 but > 0 denote negative cooperativity, and a value of 1 indicates neutral coopera-tivity.

M1 mAChR = molecular target: T2, M1 mAChR (Homo sapiens, UniProt P11229); test: β-arrestin 2 recruitment assay (BRET); format: cell-based; settings: for αβ (functional cooperativity with ACh) / τB (intrinsic efficacy of the modulator): antilog, in parentheses; for log τB (logarithm of intrinsic efficacy of the modulator) / log αβ (logarithm of functional cooperativity between ACh and modulator): operational model; for log αβ (logarithm of functional cooperativity between ACh and modulator): pKB constrained to binding value
T2 construct: expressed in transfected cells; host or cells: parental FlpIn CHO cells (transient, PEI)
T2 sequence (P11229 1-460): T1 sequence (P11229 1-460)
Source text: as §1
Parental FlpIn CHO cells were plated at 30000 cells/well of 96-well white Culture plates (Perkin Elmer Life Sciences) and transiently transfected with 10 ng/well of M1 Renilla luciferase (Rluc)-8 and 40 ng/well of YFP-β-arrestin 2 using linear polyethyleneimine (PEI/DNA ratio 6:1) diluted in 150 mM NaCl. DNA:PEI complexes were formed by 15 min incubation at room temperature then added to the cells and incubated at 37°C for 24 h prior to use. Cells were then washed and equilibrated in Hanks’ balanced salt solution for 1 h at 37°C. Coelenterazine h at a final concentration of 5 μM was added to each well, followed by addition of increasing concentrations of ACh in the absence or presence of increasing concentrations of each modulator. Lumines-cence and fluorescence signals were measured 5 min after agonist stimulation using the LUMIstar Omega plate reader (BMG LabTech, Offenburg, Germany). […] Data were then normalized to the maximum response to ACh.
as §2

[3] = 1 μM modulator, FlpIn CHO hM1 cells, mean ± SEM, 3 experiments
[4] = 10 μM modulator, FlpIn CHO hM1 cells, mean ± SEM, 3 experiments
[5] = IP1 accumulation, antilog, in parentheses
[6] = allosteric ternary complex model, mean ± SEM, read-out: pKB (negative logarithm of the allosteric modulator equilibrium dissociation constant) (converted)

activation at 1 µM (hM1 mAChR [1]; [3])	activation at 10 µM (hM1 mAChR [1]; [4])	τB (intrinsic efficacy of the modulator) (hM1 mAChR [1]; [5])	log τB (logarithm of intrinsic efficacy of the modulator) (hM1 mAChR [1]; IP1 accumulation)	log αβ (logarithm of functional cooperativity between ACh and modulator) (hM1 mAChR [1]; IP1 accumulation)	Kb (hM1 mAChR [2]; [6])	Kb (hM1 mAChR [2]; antilog of pKB, in parentheses, read-out: KB (converted))	α (binding cooperativity with ACh) (hM1 mAChR [2]; in parentheses)	log αACh (logarithm of binding cooperativity between ACh and modulator) (hM1 mAChR [2]; mean ± SEM)	αβ (functional cooperativity with ACh) (M1 mAChR)	τB (intrinsic efficacy of the modulator) (M1 mAChR)	log τB (logarithm of intrinsic efficacy of the modulator) (M1 mAChR)	log αβ (logarithm of functional cooperativity between ACh and modulator) (M1 mAChR)	ΔpEC50 [1 μM]: change in ACh pEC50 in presence of M1 PAM compared to control curve (hM1 mAChR [1]; [3])	ΔpEC50 [10 μM]: change in ACh pEC50 in presence of M1 PAM compared to control curve (hM1 mAChR [1]; [4])	αβ (functional cooperativity with ACh) (hM1 mAChR [1]; [5])	SMILES
100%	100%	3	0.54±0.02	1.89±0.07	3.31 µM	3 µM	120	2.08±0.13	95	2	0.28±0.04	1.98±0.10				Cn1cc(-c2ccc(COc3ncccc3-c3cc(=O)n(C4CCCCC4O)cn3)cc2)cn1 (stereo not shown) [Compound 26a, 3-(2-Hydroxycyclohexyl)-6-(2-((4-(1-methyl-1H-pyrazol-4-yl)benzyl)oxy)pyridin-3-yl)pyrimidin-4(3H)-one]
38.5 ± 3.8%	78.6 ± 2.8%	3	0.54±0.04	2.05±0.12	15.8 µM		151	2.18±0.19	56	0.4	–0.36±0.12	1.75±0.11	0.96±0.18	1.50±0.32	112	O=c1cc(-c2ccccc2OCc2ccc(-n3cccn3)nc2)ncn1C1CCCCC1O (stereo not shown) [Compound 27b, 6-(2-((6-(1H-Pyrazol-1-yl)pyridin-3-yl)methoxy)phenyl)-3-(2-hydroxycyclohexyl)pyrimidin-4(3H)-one]
